# In a melting point compilation (Tetko et al.):
row,SMILES,melting point [°C]
1,c1ccc(CC2CCCCN2)cc1 (stereo not drawn),32
2,FC(F)(F)c1ccc(N2CCNCC2)cc1,89 to 92
3,Nc1c(C(F)(F)F)cc(Cl)nc1Cl,50 to 51
4,CC(C)(C)SC(C)(C)C,-9
5,CC(C)CCC[C@@H](C)[C@H]1CC[C@H]2[C@@H]3CC[C@H]4C[C@H](O)CC[C@]4(C)[C@H]3CC[C@]12C,186
6,Oc1c(Cl)cc(Cl)cc1Br,68
7,O=[N+]([O-])c1cc[nH]n1,173 to 175
8,C1CCC2OC2C1 (stereo not drawn),-40
9,CCOc1ccc(NC(=O)C(F)(F)C(F)(F)C(F)(F)C(F)(F)C(F)(F)C(F)(F)C(F)(F)C(F)(F)F)cc1,135
10,N#CCCn1cnc2c(N)ncnc21,255
11,CCOP(=S)(OCC)Oc1ccc2c(C)c(Cl)c(=O)oc2c1,95
12,CN1CCN(Cc2ccccc2CO)CC1,62 to 64
13,CC1(C)CCC(=O)CC1,42
14,O=S(=O)(Cl)c1c(Cl)sc(Cl)c1Br,69
15,Nc1ccccc1C(=O)OCc1ccccc1,76 to 78
16,FC(F)(F)c1cccnc1Cl,39
17,NC(=O)C1CC1(Cl)Cl (stereo not drawn),148 to 149
18,CNC(=O)ON=CC(C)(C)SC,99
19,Nc1cc(C(F)(F)F)c(F)cc1Br,27
20,C=C1C(=O)C23C4CC5C(C)(C)CCCC56COC(CC1C2OC(C)(C)O4)C63 (stereo not drawn),163
21,CCN(CC)CC(=O)OCC(=O)C1(O)CCC2C3CCC4=CC(=O)CCC4(C)C3C(O)CC21C (stereo not drawn),162
22,CCCCCCC(O)CC=CCCCCCCCC(=O)O (stereo not drawn),5.5
23,CC(C)CC(C)(N)C(=O)O (racemic),300
24,C=CCC1(CC(C)C)C(=O)NC(=O)NC1=O,138
25,CN(C(=O)C(C(F)(F)F)C(F)(F)F)C1CCCCC1,169
26,CC(C)(C)OC(=O)N1CSC[C@H]1C(=O)O,132 to 136
27,ICCCI,-20

row,SMILES,melting point [°C]
1,CCOC(=O)NNC(=O)NC1CCCCC1,115 to 117
2,FC(Cl)(Cl)C(Cl)Cl,-82.6
3,OCC1OC(OC2C(CO)OC(O)C(O)C2O)C(O)C(O)C1O (stereo not drawn),256 to 258
4,CC1(C)C(C=C2CCSC2=O)C1C(=O)OCc1coc(Cc2ccccc2)c1 (stereo not drawn),31
5,C=C(C)CN(CC)c1c([N+](=O)[O-])cc(C(F)(F)F)cc1[N+](=O)[O-],55.5
6,CCCCOC(=O)c1ccccc1C(=O)OCCCC,-35
7,CSc1sc(Cl)c2c1C(=O)CC(C)(C)C2,126 to 129
8,[N-]=[N+]=Nc1ccc(Br)cc1,20
9,O=C(NC1CCCCC1)C(Br)(C(F)(F)F)C(F)(F)F,87
10,O=c1n(Cl)c(=O)n(Cl)c(=O)n1Cl,249
11,CN1CCCN(CC#N)CCN(CC#N)CCCN(CC#N)CC1,88
12,CCC(=Cc1ccccc1)[N+](=O)[O-],90.5
13,"CC1CCC(C(C)C)C(=O)C1 (single isomer, unassigned; (-))",-6
14,CC(=O)NCCNC(C)=O,174
15,CC(C)OC(=O)CCCCC(=O)OC(C)C,-1.1
16,CCCCCC=CCC=CCCCCCCCC(=O)O,-5
17,CNc1ccc2oc(CC3OC4(CCC3C)OC(C(C)C(=O)c3ccc[nH]3)C(C)CC4C)nc2c1C(=O)O (stereo not drawn),182
18,CC(C)(C)P(=O)(O)O,188 to 192
19,O=C1NC(=O)C(Cc2cccc(CC3C(=O)NC(=O)NC3=O)c2)C(=O)N1,272
20,Fc1cc2c(cc1F)Oc1cc(Cl)c(Cl)cc1O2,223
21,CCCCCSC,-94
22,CC(C)(C)S(=O)(=O)c1cnc(N2CCCC2)nc1N,199 to 201
23,CCCCCCCCCC1CCCCC1,-10
24,OC(CBr)C(O)CBr (racemic),82 to 84
25,Cc1cc(O)ccc1[N+](=O)[O-],128
26,OC1(C#CC#CC2(O)CCCCC2)CCCCC1,175
27,CC1C(=O)OC2CCN3CC=C(COC(=O)C(C)(O)C1(C)O)C23 (stereo not drawn),197 to 204

# The next lines start with the values.
row,melting point [°C],SMILES
1,160,Cc1nc2ccccc2[nH]c(=O)c1=NNc1cc(-c2ccccc2)n[nH]1
2,56 to 59,CC(=O)c1c(-c2ccc(Cl)cc2)noc1C
3,111,Nc1cc([N+](=O)[O-])c(/C=C/c2ccccc2)cc1/C=C/c1ccccc1
4,98 to 100,Cc1cc(C(F)(F)F)n2nc(N)c(/N=N/c3c(Br)cc(Br)cc3Br)c2n1
5,97,CCOC(=O)c1cc(-c2ccccc2)n(-c2ccccc2)c1C
6,110,COc1cc(C(=O)c2ccc(C)cc2)c([N+](=O)[O-])cc1OC
7,160 to 163,c1ccc(C2=NCCN=C2c2ccccc2)cc1
8,72,Cc1cc(S(=O)(=O)Cl)c(Cl)cc1Cl
9,184 to 185,CCCOC(=O)C1=C(C)NC(=O)NC1c1ccc2c(c1)OCO2 (stereo not drawn)
10,190,O=[N+]([O-])c1ccc(N=Nc2ccc(N(CCO)CCO)cc2Cl)cc1
11,80 to 128,CCCCOc1ccc(/C=N/c2ccc(C(C)=O)cc2)cc1
12,173 to 175,Nc1c(Br)cccc1C(=O)O
13,56,CC(CCC(=O)O)Cc1ccccc1 (stereo not drawn)
14,211 to 213,C/C(=N/NC(N)=S)C(=O)Nc1ccccc1
15,74 to 78,Cc1ccc2ccc(Cl)cc2n1
16,172,CC(=O)Nc1ccc2c(c1)CCC2=O
17,72,CN1C(=O)CC(c2ccccc2)C1=O (stereo not drawn)
18,206,NC1=NCC2c3ccccc3Cc3ccccc3N12 (stereo not drawn)
19,58,C[Si](C)(C)C#Cc1cccc(C#C[Si](C)(C)C)c1
20,38,Fc1c(Cl)cccc1Cl
21,65,Cc1ccc(C(c2ccc(C)o2)c2ccccc2O)o1
22,188,CC1=CC(=O)CC(=O)O1
23,128 to 132,Nc1ccc(Br)c([N+](=O)[O-])c1
24,150 to 151,CC(=O)c1ccc(NC(=O)CCl)cc1
25,242,O=C(Nc1ccccc1)Nc1ccccc1

row,melting point [°C],SMILES
1,118,Cc1ccc([N+](=O)[O-])cc1O
2,192,Cc1cc(NS(=O)(=O)c2ccc(N)cc2)sn1
3,64 to 67,Clc1cccc(Cl)c1I
4,128,CC(Br)C(Br)c1nc(O)n(-c2ccccc2)n1 (stereo not drawn)
5,85,Cc1ccc(C#N)cn1
6,126 to 127,CSc1nc(N)c(C(=O)c2ccccc2)s1
7,102,O=[N+]([O-])c1c(Cl)ncnc1Cl
8,208,O=C(O)CCC(=O)c1ccc2c(c1)-c1cccc3cccc-2c13
9,220,COc1cc2c(cc1O)C(Cc1ccc(O)cc1)NCC2 (stereo not drawn)
10,70 to 73,O=C(Cl)C1=Cc2ccccc2OC1
11,93 to 98,N#Cc1cc(Br)ccc1N
12,46.5,CCc1cc2c(cc1C(C)=O)C(C)(C)CCC2(C)C
13,135,Cc1c(C)c(C)c(C(=O)Cc2ccccc2)c(C)c1C
14,232,O=[N+]([O-])c1ccc(Br)c2cccc(C=Nc3ccccc3)c12
15,70 to 72,COc1ccc(N(C)C(=S)Cl)cc1
16,180,CC1CC=C/C1=N\Nc1ccc([N+](=O)[O-])cc1[N+](=O)[O-] (stereo not drawn)
17,154 to 156,O=Cc1cc(Cl)c(O)c(Cl)c1
18,28,Nc1ccc2c(c1)OCCO2
19,95,CCCC(=O)OC1(C(=O)CCl)C(C)CC2C3CCC4=CC(=O)C=CC4(C)C3(F)C(=O)CC21C (stereo not drawn)
20,93,COc1ccc2c(c1)C(C(=O)O)C2 (stereo not drawn)
21,72,COc1ccc(S(=O)(=O)Cl)c(OC)c1
22,240,COc1cc(O)c2c(=O)c(-c3ccc(O)cc3)coc2c1
23,144,Cc1cc(C2CCCCC2)n(O)c(=O)c1
24,272 to 275,O=C1c2ccccc2C(=O)N1c1nc2ccccc2[nH]1
25,150,O=C(OCC(=O)N1CCC1C(=O)O)c1ccccc1 (stereo not drawn)

row,melting point [°C],SMILES
1,67,OC(Cc1ccccc1)c1ccccc1 (stereo not drawn)
2,176 to 177,O=P(c1ccccc1)(c1ccccc1)C1C=COC2=C1CCCC2 (stereo not drawn)
3,124,CC1(C(=O)O)CCC(C=Cc2ccccc2)C1(C)C (stereo not drawn)
4,64 to 65,Cc1nc(-c2ccc(C(F)(F)F)cc2)sc1CBr
5,105,N#C/C(=C\c1ccccc1)c1nc2ccccc2s1
6,117 to 119,CC(=O)c1cc(-c2c(Cl)cccc2Cl)no1
7,124,CCOc1ccc(Cc2nc(C)cc3cc(OC)c(OC)cc23)cc1OC
8,133,COc1ccc([N+](=O)[O-])c(C(=O)O)c1
9,127,O=[N+]([O-])CC(Nc1ccccc1)c1cccc(C(C[N+](=O)[O-])Nc2ccccc2)c1 (stereo not drawn)
10,81.3,Nc1nccc(-c2ccncc2)n1
11,133,N#C/C(=N/Nc1cc(Cl)ccc1Cl)c1nc(-c2ccccc2)cs1
12,53,COc1ccc(C=O)c(C)c1C
13,289,Nc1c(C=O)cc(C=O)c2nc(-c3ccccc3)c(-c3ccccc3)nc12
14,60,CCOC(=O)C(C#N)c1ccccc1[N+](=O)[O-] (stereo not drawn)
15,46,S=C=Nc1ccc(Br)cc1Cl
16,77 to 78,Cn1nc(-c2cccs2)cc1CN
17,112,C/C(=N\NC(N)=O)C(=O)C(C)Cc1ccccc1 (stereo not drawn)
18,290,Oc1cc(C(F)(F)F)nc2ccc(Br)cc12
19,80,CCOC(=O)C(=Cc1cc(C=C(C(=O)OCC)C(=O)OCC)cc([N+](=O)[O-])c1)C(=O)OCC
20,60.5,Cc1ccc(C=O)c(O)c1
21,146,O=C(c1ccccc1)c1ccccc1C(=O)c1ccccc1
22,98 to 101,O=C(O)c1cccc(N2CCCCC2)n1
23,79 to 81,OCc1csc2ccc(Br)cc12
24,111,ICCc1ccc(CCI)cc1
